The test has as its system T lymphocytes (normal mouse spleen cells) stimulated with ConA. Put plainly: Mouse Spleen Cell ConA Blastogenesis Assay. The test is classed as cell-based, mouse (C57Bl/6). As to conditions: for inhibition at 0.01 µg/mL / inhibition at 0.1 µg/mL / inhibition at 1 µg/mL / inhibition at 2.5 µg/mL / inhibition at 10 µg/mL / inhibition at 25 µg/mL / inhibition at 100 µg/mL / inhibition at 0.001 µg/mL: Mus musculus, T-lymphocyte; for strong antiproliferative effect on ConA blastogenic response: concentration not given.

Where [1] appears, read: ConA 1 ug/ml, compound 0.01 ug/ml, read-out: % change from control, ConA blastogenic response.
[2] abbreviates: ConA 1 ug/ml, compound 0.1 ug/ml, read-out: % change from control, ConA blastogenic response.
Where [3] appears, read: ConA 1 ug/ml, compound 1 ug/ml, read-out: % change from control, ConA blastogenic response.
Setting [4] is: ConA 1 ug/ml, compound 2.5 ug/ml, read-out: % change from control, ConA blastogenic response.
Setting [5] is: ConA 1 ug/ml, compound 10 ug/ml, read-out: % change from control, ConA blastogenic response.
Setting [6] is: ConA 1 ug/ml, compound 25 ug/ml, read-out: % change from control, ConA blastogenic response.
Where [7] appears, read: ConA 1 ug/ml, compound 100 ug/ml, read-out: % change from control, ConA blastogenic response.
Setting [8] is: ConA 4 ug/ml, compound 0.01 ug/ml, read-out: % change from control, ConA blastogenic response.
The mark [9] stands for this setting: ConA 4 ug/ml, compound 0.1 ug/ml, read-out: % change from control, ConA blastogenic response.
Setting [10] is: ConA 4 ug/ml, compound 1 ug/ml, read-out: % change from control, ConA blastogenic response.
[11] abbreviates: ConA 4 ug/ml, compound 2.5 ug/ml, read-out: % change from control, ConA blastogenic response.
Setting [12] is: ConA 4 ug/ml, compound 10 ug/ml, read-out: % change from control, ConA blastogenic response.
Setting [13] is: ConA 4 ug/ml, compound 25 ug/ml, read-out: % change from control, ConA blastogenic response.
[14] abbreviates: ConA 4 ug/ml, compound 100 ug/ml, read-out: % change from control, ConA blastogenic response.

Where two headings read alike, the source gives them in different places.

Take `CCCCC/C=C/COC[C@H]1O[C@@]2(OC)COC(C)(C)O[C@H]2[C@@H]1OC/C=C/CCCCC` [Ie, methyl 1,3-O-isopropylidene-4,6-di-O-(trans,2-octenyl)-α-D-fructofuranoside]: the inhibition at 0.01 µg/mL by setting is: (ConA 1 ug/ml, 0.01 ug/ml, read-out: % Change from Control (Table II)) 2%; under setting [1], 22%; (ConA 4 ug/ml, 0.01 ug/ml, read-out: % Change from Control (Table II)) 8%; under setting [8], 4%. In addition, the inhibition at 0.1 µg/mL under setting [2] turned out to be 18% and the inhibition at 0.1 µg/mL under setting [9] worked out at 9%. In addition, the inhibition at 1 µg/mL is, setting by setting: under setting [3], 34%; under setting [10], 59%. In addition, the inhibition at 2.5 µg/mL is 72% under setting [4] and 79% under setting [11]. Besides, the inhibition at 10 µg/mL under setting [5] was 91% and the inhibition at 10 µg/mL under setting [12] turned out to be 92%. Also, the inhibition at 25 µg/mL is, setting by setting: under setting [6], 99%; under setting [13], 99%. Also, the inhibition at 100 µg/mL runs as follows: under setting [7], 100%; under setting [14], 100%.

Regarding `CCCCCCCOC[C@H]1O[C@@]2(OC)COC(C)(C)O[C@H]2[C@@H]1O` [Ia, methyl 1,3-O-isopropylidene-6-O-heptyl-α-D-fructofuranoside], the “effect on ConA T lymphocyte proliferation in words” value is listed as “dose-dependent, significant, inhibitory effect”. In addition, the “Blastogenic response of normal spleen cells to Con-A” value (“Blastogenic response … to Con-A” for short) (ConA 1 ug/ml, compound 0.001 ug/ml) is on record as 52.6 ± 3.8 × 10^-3 cpm. Further, where the note is “ConA 1 ug/ml, compound 0.01 ug/ml”, the “Blastogenic response … to Con-A” value was 45.1 ± 4.9 × 10^-3 cpm. Moreover, the “Blastogenic response … to Con-A” value (ConA 1 ug/ml, compound 0.1 ug/ml) is recorded as 71.1 ± 4.9 × 10^-3 cpm. Where the note is “ConA 1 ug/ml, compound 1 ug/ml”, the “Blastogenic response … to Con-A” value is on record as 55.7 ± 8.4 × 10^-3 cpm. In addition, the “Blastogenic response … to Con-A” value (ConA 1 ug/ml, compound 2.5 ug/ml) is listed as 47.2 ± 7.0 × 10^-3 cpm. Further, under “ConA 1 ug/ml, compound 10 ug/ml”, the “Blastogenic response … to Con-A” value is listed as 26.5 ± 8.8 × 10^-3 cpm. Further, under “ConA 1 ug/ml, compound 25 ug/ml”, the “Blastogenic response … to Con-A” value is 1.5 ± 0.4 × 10^-3 cpm. For the same compound, for the setting “ConA 1 ug/ml, compound 100 ug/ml”, the “Blastogenic response … to Con-A” value is on record as 0.6 ± 0.1 × 10^-3 cpm. The “Blastogenic response … to Con-A” value (ConA 4 ug/ml, compound 0.001 ug/ml) was 68.7 ± 5.0 × 10^-3 cpm. Moreover, for the setting “ConA 4 ug/ml, compound 0.01 ug/ml”, the “Blastogenic response … to Con-A” value was 72.8 ± 0.8 × 10^-3 cpm. Moreover, the “Blastogenic response … to Con-A” value (ConA 4 ug/ml, compound 0.1 ug/ml) is 88.8 ± 2.4 × 10^-3 cpm. Also, the “Blastogenic response … to Con-A” value (ConA 4 ug/ml, compound 1 ug/ml) is 77.0 ± 4.2 × 10^-3 cpm. In addition, the “Blastogenic response … to Con-A” value (ConA 4 ug/ml, compound 2.5 ug/ml) is given as 63.8 ± 2.3 × 10^-3 cpm. The “Blastogenic response … to Con-A” value (ConA 4 ug/ml, compound 10 ug/ml) is 50.2 ± 3.4 × 10^-3 cpm. Also, the “Blastogenic response … to Con-A” value (ConA 4 ug/ml, compound 25 ug/ml) is reported as 13.7 ± 2.0 × 10^-3 cpm. Also, the “Blastogenic response … to Con-A” value (ConA 4 ug/ml, compound 100 ug/ml) is on record as 6.3 ± 2.2 × 10^-3 cpm. The inhibition at 0.001 µg/mL (ConA 1 ug/ml, compound 0.001 ug/ml, read-out: % change from control, ConA blastogenic response) turned out to be 5%. Under setting [1], the inhibition at 0.01 µg/mL came to 19%. Besides, the inhibition at 0.1 µg/mL under setting [2] was -28%. For the same compound, the inhibition at 1 µg/mL under setting [3] is -1%. In addition, the inhibition at 2.5 µg/mL under setting [4] is 15%. Besides, the inhibition at 10 µg/mL under setting [5] amounted to 52%. The inhibition at 25 µg/mL under setting [6] amounted to 97%. Besides, under setting [7], the inhibition at 100 µg/mL stood at 99%. Besides, the inhibition at 0.001 µg/mL (ConA 4 ug/ml, compound 0.001 ug/ml, read-out: % change from control, ConA blastogenic response) was 19%. Further, the inhibition at 0.01 µg/mL under setting [8] is 14%. In addition, the inhibition at 0.1 µg/mL under setting [9] was -5%. Under setting [10], the inhibition at 1 µg/mL was 9%. Also, the inhibition at 2.5 µg/mL under setting [11] is 25%. The inhibition at 10 µg/mL under setting [12] stood at 41%. Also, the inhibition at 25 µg/mL under setting [13] was 84%. Also, the inhibition at 100 µg/mL under setting [14] was 93%.

With `CC1(C)OC2OC(C(O)COCCCc3ccccc3)C(O)C2O1` [IIIe, 1,2-O-Isopropylidene-6-O-3'-(phenylpropyl)-α-D-glucofuranose], the “strong antiproliferative effect on ConA blastogenic response” value is listed as “greater than -50 % of control”. The inhibition at 1 µg/mL under setting [3] stood at 78%. Also, under setting [4], the inhibition at 2.5 µg/mL amounted to 94%. For the same compound, the inhibition at 10 µg/mL under setting [5] was found to be 98%. Besides, the inhibition at 25 µg/mL under setting [6] worked out at 99%. The inhibition at 100 µg/mL under setting [7] is 99%. Besides, the inhibition at 1 µg/mL under setting [10] is 76%. Moreover, under setting [11], the inhibition at 2.5 µg/mL was 91%. For the same compound, the inhibition at 10 µg/mL under setting [12] is 97%. For the same compound, the inhibition at 25 µg/mL under setting [13] amounted to 99%. Moreover, the inhibition at 100 µg/mL under setting [14] came to 100%.

Regarding `CN1CCCC1CCNC[C@H]1OC(C)(C)O[C@@H]2[C@H]3OC(C)(C)O[C@H]3O[C@@H]21` (some centres unmarked) [IIIi], the “strong antiproliferative effect on ConA blastogenic response” value is given as “greater than -50 % of control”. The inhibition at 1 µg/mL under setting [3] was -25%. In addition, the inhibition at 2.5 µg/mL under setting [4] is -16%. The inhibition at 10 µg/mL under setting [5] was -10%. For the same compound, under setting [6], the inhibition at 25 µg/mL turned out to be 23%. Moreover, the inhibition at 100 µg/mL under setting [7] was 91%. Besides, under setting [10], the inhibition at 1 µg/mL stood at 9%. Further, under setting [11], the inhibition at 2.5 µg/mL worked out at 14%. Further, the inhibition at 10 µg/mL under setting [12] was determined as 9%. The inhibition at 25 µg/mL under setting [13] stood at 50%. Further, under setting [14], the inhibition at 100 µg/mL was 95%.

These data come from patent US5298494A, “Monosaccharides having anti-proliferation and anti-inflammatory activity, compositions and uses thereof” (Greenwich Pharmaceuticals Incorporated, priority 1993, dated 1994).
